# Measured values published in US8653112B2, “Substituted pyrazoles as estrogen receptor ligands” (Karo Bio AB, priority 2009, dated 2014).
# Target: T1, human ERβ (ERβ-LBD) (Homo sapiens, UniProt Q92731)
# T1 construct: ERβ (ERβ-LBD, pET-N-AT #1, aa 255-530); biotinylation tag (in vivo biotinylated, pBirA co-expression); made in house; host or cells: E. coli BL21 (DE3) pBirA
# Experiment: Binding assay 1: estrogen receptor binding assay (SPA, 3H-E2 displacement), ERβ
# Settings: displacement of 3H-E2, read-out: binding affinity to the estrogen receptor β-subtype, IC50
# Procedure: Binding Assay 1: Estrogen Receptor Binding Assay
# The estrogen receptor ligand binding assays are designed as scintillation proximity assays (SPA), employing the use of tritiated estradiol (^3H-E2) and recombinant expressed biotinylated estrogen receptor binding domains. The binding domains of human ERα (ERα-LBD, pET-N-AT #1, aa 301-595) and ERβ (ERβ-LBD, pET-N-AT #1, aa 255-530) proteins are produced in E. coli ((BL21, (DE3), pBirA)) at 22 C in 2×LB medium supplemented with 50 uM biotin. After 3 h of IPTG induction (0.55 mM), cells are harvested by centrifugation at 7300×g for 15 min and cell pellets stored frozen in −20C. Extraction of ERα and ERβ are performed using 5 g of cells suspended in 50 mL of extraction buffer (50 mM Tris, pH 8.0, 100 mM KCl, 4 mM EDTA, 4 mM DDT and 0.1 mM PMSF). The cell suspension is run twice through a Microfluidizer M-110L (Microfluidics) and centrifuged at 15,000×g for 60 min. The supernatant is aliquoted and stored in −70C.
# Dilute ERαLBD or ERβ-LBD extracts in assay buffer (18 mM K2HPO4, 2 mM KH2PO4, 20 mM NasMoO4, 1 mM EDTA, 1 mM TCEP) 1:676 and 1:517 for alpha and beta respectively. The diluted receptor concentrations should be 900 fmol/L. Preincubate the extracts with streptavidin coated polyvinyltoluene SPA beads (RPNQ0007, GE Healthcare) at a concentration of 0.43 mg/mL for 1 hr at room temperature.
# Test compounds are evaluated over a range of concentrations from 157 μM to 37.5 pM. The test compound stock solutions should be made in 100% DMSO at 5× of the final concentration desired for testing in the assay. The amount of DMSO in the test wells of the 384 well plate will be 20%. Add 18 μl aliquots of test compounds to the assay plates followed by 35 μl of the preincubated receptor/SPA bead mix and finally add 35 μl of 3 nM ^3H-E2. Cover the plates with a plastic sealer, centrifuge for 1 minute at 1000 rpm and equilibrate over night on a shaker at room temperature. The following morning, centrifuge the plates 5 minutes at 2000 rpm and measure on a plate scintillation counter e.g. a PerkinElmer Microbeta 1450 Trilux.
# For compounds able to displace 3[H]-E2 from the receptor an IC50-value (the concentration required to inhibit 50% of the binding of 3[H]-E2) is determined by a non-linear four parameter logistic model; b=((bmax−bmin)/(1+(1/IC50)S))+bmin I is added concentration of binding inhibitor, IC50 is the concentration of inhibitor at half maximal binding and S is a slope factor. The Microbeta-instrument generates the mean cpm (counts per minute) value/minute and corrects for individual variations between the detectors thus generating corrected cpm values.
# T1 sequence (Q92731 255-530): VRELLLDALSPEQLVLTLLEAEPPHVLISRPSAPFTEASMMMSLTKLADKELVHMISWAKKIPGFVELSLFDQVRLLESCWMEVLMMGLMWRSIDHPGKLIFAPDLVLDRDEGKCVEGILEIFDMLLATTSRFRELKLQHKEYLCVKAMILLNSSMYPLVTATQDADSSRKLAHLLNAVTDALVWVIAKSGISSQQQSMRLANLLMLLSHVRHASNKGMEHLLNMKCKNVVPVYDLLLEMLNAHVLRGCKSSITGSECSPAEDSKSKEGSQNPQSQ
row,IC50 [nM],SMILES
1,1 to 100,"Cn1nc(-c2ccc(O)cc2)c(-c2c(Cl)cccc2Cl)c1C=NO (single isomer, unassigned) [Example 45, 4-(2,6-dichlorophenyl)-3-(4-hydroxyphenyl)-1-methyl-1H-pyrazole-5-carbaldehyde oxime]"
2,1 to 100,"CCc1nn(-c2ccc(O)cc2F)c(-c2c(C)noc2C)c1C=NO (single isomer, unassigned) [Example 27, 5-(3,5-dimethylisoxazol-4-yl)-3-ethyl-1-(2-fluoro-4-hydroxyphenyl)-1H-pyrazole-4-carbaldehyde oxime]"
3,1 to 100,"Cc1noc(C)c1-c1c(-c2ccc(O)cc2F)nn(C)c1C=NO (single isomer, unassigned) [Example 48, 4-(3,5-dimethylisoxazol-4-yl)-3-(2-fluoro-4-hydroxyphenyl)-1-methyl-1H-pyrazole-5-carbaldehyde oxime]"
4,1 to 100,"Cc1noc(C)c1-c1c(C=NO)c(C(C)C)nn1-c1ccc(O)cc1 (single isomer, unassigned) [Example 18, 5-(3,5-dimethylisoxazol-4-yl)-1-(4-hydroxyphenyl)-3-isopropyl-1H-pyrazole-4-carbaldehyde oxime]"
5,1 to 100,"Cc1cc(O)ccc1-c1nn(C)c(/C=N/O)c1-c1c(C)noc1C (single isomer, unassigned) [Example 63, (E)-4-(3,5-dimethylisoxazol-4-yl)-3-(4-hydroxy-2-methylphenyl)-1-methyl-1H-pyrazole-5-carbaldehyde oxime]"
6,1 to 100,"Cn1nc(-c2ccc(O)cc2)c(-c2c(F)cccc2F)c1C=NO (single isomer, unassigned) [Example 44, 4-(2,6-difluorophenyl)-3-(4-hydroxyphenyl)-1-methyl-1H-pyrazole-5-carbaldehyde oxime]"
7,1 to 100,"Cc1noc(C)c1-c1c(-c2ccc(O)cc2)nn(C)c1C=NO (single isomer, unassigned) [Example 12, 4-(3,5-dimethylisoxazol-4-yl)-3-(4-hydroxyphenyl)-1-methyl-1H-pyrazole-5-carbaldehyde oxime]"
